Reference: patent US7226892B2, “Herbicidal composition and use” (Durga Technologies ApS, priority 2003, dated 2007)

How the values were obtained:
[1] = respiratory tract/lungs, eyes, skin; cited from earlier work
[2] = tested on: mixed vegetation of grasses and weeds; assay: Spraying of glycine solution onto mixed vegetation; assay type: in vivo; conditions: glycine alone, summary statement
From the text: A common squirt bottle delivering a fine spray was used for spraying the weeds.
A solution of 90 g of glycine+15 g of the surfactant “Witconol® SN 90” in 1 L of water was sprayed onto a mixed vegetation of grasses and weeds until the spray liquid dripped from the leaves, corresponding to 0.1 L/m^2.

Compound	risk identification / classification as irritant [1]	herbicidal activity of glycine per se [2]
NCC(=O)O [glycine, 2-aminoethanoic acid]	not classified as an irritant	no noticeable herbicidal activity
O=C(O)CC(O)(CC(=O)O)C(=O)O [citric acid, Citric Acid Monohydrate, reference compound]	Irritates respiratory tract/lungs, irritates eyes, skin irritating	
